The values that follow come from US20140323593A1, “METHODS AND APPARATUS FOR THE CONTROL OF ADENOSINE TRIPHOSPHATE SYNTHASE ACTIVITY WITHIN LIVING ORGANISMS, AND CONDITIONING OF WATER-BASED FLUIDS AND SUBSTANCES USING MAGNETIC FIELD EXPOSURES OR THEIR WITHDRAWAL” (priority 2013, published 2014).

For one assay, the system named is leukemic cell K562. The assay is described as follows: average reductions in chromosome numbers (karyotype contraction) in K562. Format: cell-based, human. From the text: First, we observed that 5 different cancer cell lines representative of the most common human cancers display a reduction in their chromosome numbers when exposed to 60-Hz MFs (Appendix 1). Reductions in chromosome numbers result from metabolic restriction (Li et al., 2012), which can be caused by impaired ATPS function.
Fourth, Russian physicists (Semikhina and Kiselev, 1981) observed resonances for water at specific frequency-amplitude combinations that are broadened by the presence of even small levels of impurities. They detected one maximum at 156.2-Hz and 15.45 μT for 7° C. pure water (Semikhina et al, 1988). In our experiments compiling average chromosome losses over frequency in anoxic K562 (5% carbon dioxide and 37° C.) 6-day tests at 1 μT, a wide resonance was measured as follows: −3.6±0.79 at 50-Hz, −9.36±1.06 at 60-Hz, −12.71±1.82 at 120-Hz and −9.8±1.31 at 155-Hz. […] The ATPS resonance at […] we documented is indeed wider than that reported by Semikhina for pure water. […]
Our laboratory has detected ATPSI at all tested frequencies and at all MF intensities above 25 nT using measurements of karyotype contraction (see Appendix 1) in numerous cell lines: K562 and HEL (erythro-leukemias). […] In our experiments, ATPSI detected by karyotype contractions varied only weakly with field intensities between 25 nT and 5 μT, but probably cover the range of 10 nT to 879 μT. […]

For assay [1], the system named is 60 cancer cell lines maintained by the US National Cancer Institute (NCI-60). The following applies: mean over NCI-60 cell lines; read-out: IC50 (the concentration inhibiting proliferation rate by 50%), mean; cited from earlier work.

pIC50: −log10 of the molar value.

With `CN(C)C(=N)N=C(N)N` [Metformin], the “average reductions in chromosome numbers” value in the assay with leukemic cell K562 (K562, substance alone for 3 days, metformin 0.01 mg/l, resistin 40 ng/l) was 9. In addition, the “average reductions in chromosome numbers (losses) with 1 μT added” value in the assay on leukemic cell K562 (K562, 1 μT magnetic field added to metformin 0.01 mg/l or resistin 40 ng/l, 1 μT alone 7.5) was determined as 11±0.34.
`CC[C@H]1/C=C/C=C/C[C@@H](C)[C@H](O)[C@@](C)(O)C(=O)[C@@H](C)[C@H](O)[C@@H](C)C(=O)[C@@H](C)[C@H](O)[C@@H](C)/C=C/C(=O)O[C@@H]2[C@H](C)[C@H](CC1)O[C@]1(CC[C@H](C)[C@H](C[C@@H](C)O)O1)[C@H]2C` [oligomycin]: the pIC50 in assay [1] is 6.52.
